Experiments:
Canis familiaris [1] = species: Canis familiaris; experiment: In vitro evaluation in the dog saphenous vein for maximal response; format: functional, organism-based; conditions: Canis lupus familiaris
Canis familiaris [2] = species: Canis familiaris; experiment: Intrinsic activity was measured as maximum contraction relative to 5-HT in dog saphenous vein; format: functional, Canis lupus familiaris
Oryctolagus cuniculus [3] = species: Oryctolagus cuniculus; experiment: (§1) Intrinsic activity was measured as maximum contraction relative to 5-HT in rabbit basilar artery; format: functional
Oryctolagus cuniculus [4] = species: Oryctolagus cuniculus; experiment: In vitro evaluation in rabbit basilar artery for maximal response; format: functional, organism-based
[5] = target: Serotonin 2 (5-HT2) receptor (Rattus norvegicus) (UniProt P30994+P08909+P14842); conditions: Cortex
[6] = as §1; format: functional, Oryctolagus cuniculus
[7] = target: T1, 5-hydroxytryptamine receptor 2C (Rattus norvegicus) (UniProt P08909)
T1 sequence (whole entry): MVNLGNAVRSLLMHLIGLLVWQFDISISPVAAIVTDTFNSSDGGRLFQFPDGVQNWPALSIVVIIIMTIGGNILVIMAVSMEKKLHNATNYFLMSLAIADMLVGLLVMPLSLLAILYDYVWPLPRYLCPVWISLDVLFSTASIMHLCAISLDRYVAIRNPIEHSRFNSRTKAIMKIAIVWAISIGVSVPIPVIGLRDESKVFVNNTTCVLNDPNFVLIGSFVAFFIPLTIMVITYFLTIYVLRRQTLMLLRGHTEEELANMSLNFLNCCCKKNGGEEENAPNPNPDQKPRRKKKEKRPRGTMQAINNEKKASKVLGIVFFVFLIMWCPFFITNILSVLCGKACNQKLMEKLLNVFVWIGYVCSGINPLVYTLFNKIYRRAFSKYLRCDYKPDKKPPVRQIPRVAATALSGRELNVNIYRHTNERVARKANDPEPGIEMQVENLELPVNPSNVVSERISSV

[8] = target: Serotonin 2 (5-HT2) receptor (Homo sapiens) (UniProt P41595+P28223+P28335)
Serotonin 2 (5-HT2) receptor (Homo sapiens), sequence (P28223 whole entry, looked up): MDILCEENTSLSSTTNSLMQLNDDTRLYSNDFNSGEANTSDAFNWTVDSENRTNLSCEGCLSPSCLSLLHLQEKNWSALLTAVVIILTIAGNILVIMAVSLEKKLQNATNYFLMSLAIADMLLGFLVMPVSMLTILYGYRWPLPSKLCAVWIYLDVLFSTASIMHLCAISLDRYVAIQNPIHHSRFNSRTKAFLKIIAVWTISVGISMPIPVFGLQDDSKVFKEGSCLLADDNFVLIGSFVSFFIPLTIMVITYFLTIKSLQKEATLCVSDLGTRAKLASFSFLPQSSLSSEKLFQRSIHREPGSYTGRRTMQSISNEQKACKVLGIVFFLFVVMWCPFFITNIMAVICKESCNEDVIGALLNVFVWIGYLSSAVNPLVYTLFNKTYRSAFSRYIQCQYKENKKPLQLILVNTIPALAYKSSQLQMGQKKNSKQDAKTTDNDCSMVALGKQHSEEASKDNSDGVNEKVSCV
Serotonin 2 (5-HT2) receptor (Homo sapiens), sequence (P28335 whole entry, looked up): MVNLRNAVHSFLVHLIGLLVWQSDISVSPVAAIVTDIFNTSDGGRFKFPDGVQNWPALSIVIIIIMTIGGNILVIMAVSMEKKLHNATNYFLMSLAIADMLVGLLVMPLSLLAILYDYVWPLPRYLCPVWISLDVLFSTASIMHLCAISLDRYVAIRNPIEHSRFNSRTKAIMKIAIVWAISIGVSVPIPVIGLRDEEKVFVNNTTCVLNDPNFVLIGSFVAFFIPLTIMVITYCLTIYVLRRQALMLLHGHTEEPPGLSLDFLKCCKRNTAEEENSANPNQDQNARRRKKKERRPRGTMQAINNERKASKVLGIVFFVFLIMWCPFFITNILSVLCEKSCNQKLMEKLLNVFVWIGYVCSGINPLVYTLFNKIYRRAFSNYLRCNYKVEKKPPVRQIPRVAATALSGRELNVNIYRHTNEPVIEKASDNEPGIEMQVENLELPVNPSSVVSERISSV
Serotonin 2 (5-HT2) receptor (Homo sapiens), sequence (P41595 whole entry, looked up): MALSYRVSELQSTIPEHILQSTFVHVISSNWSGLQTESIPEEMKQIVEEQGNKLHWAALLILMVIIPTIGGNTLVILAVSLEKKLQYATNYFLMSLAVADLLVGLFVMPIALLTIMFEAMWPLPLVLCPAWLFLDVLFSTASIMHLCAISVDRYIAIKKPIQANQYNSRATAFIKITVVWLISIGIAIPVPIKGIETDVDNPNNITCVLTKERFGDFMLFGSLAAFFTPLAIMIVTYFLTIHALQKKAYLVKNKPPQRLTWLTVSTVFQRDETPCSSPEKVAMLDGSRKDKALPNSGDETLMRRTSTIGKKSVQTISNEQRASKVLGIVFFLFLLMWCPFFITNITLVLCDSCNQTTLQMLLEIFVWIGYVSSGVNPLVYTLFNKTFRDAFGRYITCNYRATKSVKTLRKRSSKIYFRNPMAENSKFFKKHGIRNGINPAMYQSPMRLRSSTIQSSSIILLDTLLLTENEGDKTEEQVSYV

Serotonin 2 (5-HT2) receptor (Rattus norvegicus), sequence (P14842 whole entry, looked up, one chain of several): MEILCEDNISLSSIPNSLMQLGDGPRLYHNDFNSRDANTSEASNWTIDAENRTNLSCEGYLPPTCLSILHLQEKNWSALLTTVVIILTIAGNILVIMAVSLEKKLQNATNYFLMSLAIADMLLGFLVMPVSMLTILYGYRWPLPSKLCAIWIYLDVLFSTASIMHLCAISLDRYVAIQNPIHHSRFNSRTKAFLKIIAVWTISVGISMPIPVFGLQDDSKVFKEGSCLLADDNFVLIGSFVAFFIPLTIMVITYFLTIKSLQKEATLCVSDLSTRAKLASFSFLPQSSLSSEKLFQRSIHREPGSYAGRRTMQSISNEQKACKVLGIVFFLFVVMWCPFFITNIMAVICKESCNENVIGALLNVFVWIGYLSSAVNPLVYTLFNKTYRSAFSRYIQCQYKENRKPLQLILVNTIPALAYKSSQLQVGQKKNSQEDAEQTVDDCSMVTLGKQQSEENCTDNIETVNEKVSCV
Serotonin 2 (5-HT2) receptor (Rattus norvegicus), sequence (P30994 whole entry, looked up, one chain of several): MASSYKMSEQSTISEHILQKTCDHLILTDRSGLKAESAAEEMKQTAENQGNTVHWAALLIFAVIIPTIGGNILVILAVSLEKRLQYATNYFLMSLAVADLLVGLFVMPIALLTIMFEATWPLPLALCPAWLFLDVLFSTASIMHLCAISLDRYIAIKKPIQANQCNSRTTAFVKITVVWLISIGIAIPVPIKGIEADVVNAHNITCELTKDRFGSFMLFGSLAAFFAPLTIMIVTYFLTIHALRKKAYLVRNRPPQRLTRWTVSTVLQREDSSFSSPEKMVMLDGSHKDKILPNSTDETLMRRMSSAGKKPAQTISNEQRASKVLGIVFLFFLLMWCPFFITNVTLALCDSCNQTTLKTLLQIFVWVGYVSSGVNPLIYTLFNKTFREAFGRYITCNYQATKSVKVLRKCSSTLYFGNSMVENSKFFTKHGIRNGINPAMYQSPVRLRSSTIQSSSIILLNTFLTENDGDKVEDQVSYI

CNS(=O)(=O)Cc1ccc2[nH]cc(CCN(C)C)c2c1
EC50 (Canis familiaris [1]): 0.4 µM | IA (Canis familiaris [2]): 0.78 | IA (Oryctolagus cuniculus [3]): 0.74 | EC50 (Oryctolagus cuniculus [4]): 2.4 µM | pKD [5]: > 4

CCN(CC)C(=O)N[C@H]1C=C2c3cccc4[nH]cc(c34)C[C@H]2N(C)C1 [LISURIDE]
IA (Canis familiaris [2]): 0.73 | IA (Oryctolagus cuniculus [3]): 0.73

NCCc1c[nH]c2ccc(O)cc12 [SEROTONIN]
IA (Canis familiaris [2]): 1 | IA [6]: 1

NCCc1c[nH]c2ccc(C(N)=O)cc12
pKD [7]: 6.2 | pKD [8]: 4.7
